Patent publication US20220332839A1, “USE OF PRG4 TO TREAT CANCER” (Lubris LLC, priority 2019, published 2022)

How the values were obtained:
[1] = tested on: MDA-MB-231 cell-derived organoids; assay: Three-dimensional Matrigel culture, proportion of spherical vs invasive organoids; format: cell-based, human; conditions: for TGFβ-induced invasive growth of organoids: rhPRG4 0.1, 10, 100 μg/mL, 4-MU 0.5 mM
Procedure: For three-dimensional culture assays, 50 μl of ice-cooled 33% growth factor-reduced Matrigel (Corning Incorporated, USA) in complete growth medium, consisting of DMEM containing 10% FBS, penicillin, streptomycin and amphotericin B (Invitrogen, Canada), was added per well of a 96-well flat bottom, ultra-low attachment plate (BD Biosciences, Canada) followed by storing the plate for 1 hour in a 5% CO2 humidified incubator at 37° C. to allow formation of a 1 mm-thick Matrigel bed in the well. Next, approximately 400 isolated MDA-MB-231 cells, suspended in 50 μl ice-cooled 50% Matrigel in complete growth medium, were layered on top of the Matrigel bed per well of the 96-well plate and incubated inside 5% CO2 humidified incubator at 37° C. One hour post addition and 37° C. incubation of Matrigel-cells suspension, 50 μl of complete growth medium was added to cover the solidified Matrigel-cells mixture. The following day and, every third day, the three-dimensional cultures received 50 μl of fresh complete growth medium without or with specified reagents as listed in the figure descriptions. On Day 8 of culture, differential interference contrast (DIC) images were captured of 8 representative organoids from each well, using light microscopy at 30× objective (Olympus IX70, Canada). […] Number of smooth surfaced organoids without any protrusions, designated as “spherical” were counted out of eight representative images in each well and then percentage of spherical organoids in each condition were plotted in bar graphs. Each experiment was performed at least three independent times for statistical analyses.

lubricin (PRG4) mRNA = assay: PRG4 mRNA expression in CAFs and ex vivo HCC specimens; format: cell-based, human
Procedure: RNA extraction and cDNA synthesis: […] of frozen ex-vivo treated HCC tissues were ground with a mortar-pestle in the presence of liquid nitrogen until a thin powder was obtained. The ground tissues were lysed with 0.5-1 ml of RLT buffer+1% (BME) and then processed according to the manufacturer's recommendations (RNeasy kit, Qiagen). […] The obtained RNA was assayed for quality and concentration using the NanoDrop 2000/2000c (Thermo Fisher Scientific). cDNA was synthetized using the High Capacity cDNA reverse transcription kit (Thermo Fisher Scientific), according to relative datasheet.
Real time PCR: One ng/μl of cDNA was used in total 20 μl reaction mix in the presence of 500 nM of each forward and reverse primer referred to a specific gene of interest, and 2×SYBR green master mix (Bio-Rad). The reaction was conducted in a CFX96 Touch Real-Time Detection System (Bio-Rad).
CAFs isolation: Immediately after surgical resection, HCC tumoral and peritumoral specimens were minced into 0.5-1 cm pieces and left in MACS Tissue Storage Solution (Miltenyi Biotec). The tissues were then further cut into smaller size pieces (1-2 mm), washed three times in Hanks balanced salt solution (HBSS), and then incubated in HBSS in the presence of type IV collagenase (Thermo Fisher Scientific) and 3 mM CaCl2 at 37° C. under gentle rotation for 4 hours. At the end of this step, the dissociation was mechanically facilitated by pipetting up-down the digested tissues with a large size orifice 50 ml pipette. The floating cells were collected and washed three times with HBSS and seeded in normal culture conditions in IMDM+20% FBS. The decanted, partially digested tissue specimens were subjected to a second round of digestion (as previously described). The resulting dissociated cells were washed with HBSS and cultured in IMDM+20% FBS. […] The presence of minimal contaminating non-fibroblastic cells (mostly cancerous hepatocytes, cholangiocytes and macrophages) was evaluated using antibodies to EpCAM, CD45, and CD11b.

CD44-shRNA HCC cells = assay: 72-hour proliferation assay, CD44-silenced HCC cells; format: cell-based, human; conditions: 2.5 μM drug; rhPRG4 0 to 100 μg/ml; p<0.05 to p<0.001
From the text: Stable CD44 silencing: HLE and HLF cell lines were transduced with lentiviral particles carrying control non-targeting (V), or specific CD44-targeting shRNA sequences (A to D), and selected with puromycin dihydrochloride (Thermo Fisher Scientific) to obtain stable CD44 silencing, according to manufacturer instructions (OriGene Technologies, Inc., Rockville, Md. 20850, USA). Control-shRNA sequence (V) and CD44-shRNA sequence B were used in all the experiments involving CD44 downregulation.
Proliferation assay: In 100 μl complete medium, 3,000 cells were seeded in wells of a 96-well plate and left overnight to allow complete attachment. The next day (at time t=0 hours), the medium was removed and replaced with 100 μl of fresh medium in the presence/absence of Sorafenib (2.5 μM), Regorafenib (2.5 μM), rhPRG4 (12.5 to 100 μg/ml). Dimethyl sulfoxide (DMSO) and PBS+0.01% Tween-20 were used as vehicles of Sorafenib/Regorafenib, and rhPRG4, respectively. Cells in triplicate wells for each cell line were fixed at t=0 hours with 4% paraformaldehyde (PFA, pH 7.6, 10 min incubation), then stained with crystal violet (CV) and thoroughly washed to remove the excess staining. […] Optical density was at 595 nm wavelength measured using a plate reader.

[2] = tested on: HCC cells (HLE, HLF, PLC/DC/19, Hep3B, PLC/PRF/5); assay: 72-hour proliferation assay, all HCC cells; format: cell-based, human; conditions: Homo sapiens, same experimental conditions
Procedure: Proliferation assay: In 100 μl complete medium, 3,000 cells were seeded in wells of a 96-well plate and left overnight to allow complete attachment. The next day (at time t=0 hours), the medium was removed and replaced with 100 μl of fresh medium in the presence/absence of Sorafenib (2.5 μM), Regorafenib (2.5 μM), rhPRG4 (12.5 to 100 μg/ml). Dimethyl sulfoxide (DMSO) and PBS+0.01% Tween-20 were used as vehicles of Sorafenib/Regorafenib, and rhPRG4, respectively. Cells in triplicate wells for each cell line were fixed at t=0 hours with 4% paraformaldehyde (PFA, pH 7.6, 10 min incubation), then stained with crystal violet (CV) and thoroughly washed to remove the excess staining. After 72 hours, the cells were fixed by adding 100 μl of 4% PFA directly to the medium (2% final PFA concentration, 20 min incubation), and processed for CV staining as previously described. Then, 100 or 200 μl of 1% sodium dodecyl-sulphate were added to the wells and the plates were left under shaking until complete CV release from stained cells. Optical density was at 595 nm wavelength measured using a plate reader.

CD44-IgG1Fc = biological target: T1, CD44-IgG1Fc (Homo sapiens, UniProt P16070); assay: Direct ELISA: binding of coated macromolecules to CD44-IgG1Fc; conditions: for percentage binding to CD44 of enzyme-digested rhPRG4 compared to untreated control: coating 30 μg/mL, digestion 16 hours at 37° C.
T1 construct: purchased R & D systems
Procedure: High-binding microtiter plates (Corning, Sigma Aldrich, USA) were coated with rhPRG4 (Mr≅240 KDa), high molecular weight HA (HMW HA; Mr≅1,500 KDa) (R & D System, USA), medium molecular weight HA (MMW HA; Mr≅′300KDa) (R & D System) and vitronectin KDa) (Sigma Aldrich) at 400 μg/mL in PBS buffer (100 μL per well) overnight at 4° C. rhPRG4 is a full-length product produced by CHO-M cells (Lubris, Framingham, Mass., USA). Following washing with PBS+0.1% Tween 20, wells were blocked with 2% bovine serum albumin (BSA; 300 μL per well) for at least 2 hours at room temperature. CD44-IgG1Fc (R & D systems) or IgG1Fc (R & D systems), each at 1 μg/mL (100 μl per well), were added to the plate and incubated for 60 min at room temperature. Following washing with PBS+0.1% tween 20, anti-IgG1Fc-HRP (Sigma Aldrich) was added at 1:10,000 dilution (100 μL per well) and incubated for 60 min at room temp. Following washing with PBS+0.1% tween 20, the assay was developed using 1-step Turbo TMB ELISA reagent (ThermoScientific, USA) and absorbance was measured at 450 nm. The data represents an average of 4 independent assays, each with triplicate wells per group.
The concentration-dependent binding of rhPRG4, HMW HA and MMW HA to CD44 was performed by coating microtiter plates with 400, 200, 100, 20, 4, 2 and 0.1 μg/mL of the macromolecules. The assay was performed as described above. The absorbance values in the IgG1Fc wells were subtracted from the absorbance values in the CD44 IgG1Fc wells and the corrected CD44 IgG1Fc absorbance values were normalized to those of the 400 μg/mL rhPRG4 group and data was expressed as percentage binding to CD44. The concentration-dependent binding of rhPRG4, HMW HA and MMW HA to recombinant CD44 is depicted in FIG. 1B. […] The data represents an average of 4 independent assays, each with triplicate wells per group.
rhPRG4 was digested using sialidase A (Prozyme, USA), O-glycosidase (New England Biolabs, USA) or a combination of sialidase A and O-glycosidase for 16 hours at 37° C. In the sialidase A digestion, 12 μL of the enzyme (1U/200 μL) was added to rhPRG4 in a total reaction volume of 180 μL and a rhPRG4 final concentration of 300 μg/mL. In the O-glycosidase digestion, 4.8 μL of the enzyme (40million units/mL) was added to rhPRG4 in a total reaction volume of 180 μL and a rhPRG4 final concentration of 300 μg/mL under non-denaturing conditions. In the sialidase-A and O-glycosidase digestion, the enzymes were used in volumes identical to the ones stated above and incubated with rhPRG4 in a total reaction volume and final rhPRG4 concentration as stated above. The effect of sialidase-A and O-glycosidase digestions on rhPRG4 apparent molecular weight was determined by SDS-PAGE using 4-12% Bis-Tris gel (NuPage, life technologies, USA). A total of 20 μL of rhPRG4 or enzyme-digested rhPRG4 was run under reducing conditions ([…] for 60 min) followed by staining using Gelcode Blue Stain (Thermo Scientific, USA). Binding of enzymatically digested rhPRG4 to CD44 was compared to undigested rhPRG4 using the direct ELISA approach described above and using an rhPRG4 coating concentration of 30 μg/mL. Data represents the average of 4 independent experiments, each with triplicate wells per group.

MDA-MB-231 cells = assay: In vitro trans-well invasion assay; format: cell-based, human; conditions: 100 pM TGFβ; 400 μg/mL LMWHA
Procedure: Overnight 0.2% FBS-containing DMEM incubated, i.e. serum-starved, MDA-MB-231 cells were used for the transwell invasion using polycarbonate filters (24-well insert, pore size 8 μm; BD Biosciences, Canada). Prior to addition of cells, each insert was placed within a well of a 24-well tissue culture plate and equilibrated with 0.5 mL serum-free DMEM, added both to the upper and lower chambers at 37° C. for 2 h. The equilibration media was then gently removed and upper chamber surface of the insert was coated with 50 μL of 3% Matrigel and allowed to solidify at 37° C. for 1 h. 1×10^5 serum-starved MDA-MB-231 cells were resuspended in 0.5 mL of serum-free DMEM and added to the upper Matrigel-coated chamber. 500 μL complete growth medium alone or containing specific reagents, as described in the respective figure descriptions, was added to the lower chambers. Cells were allowed to invade the matrix for 12 h at 37° C. after which non-adherent cells were removed by PBS washing of cell layers on the upper chamber three times. During the second wash a cotton tip applicator was used to gently scrape away the adherent cells on the upper surface of the membrane. Invading cells were fixed by immersing the transwell inserts in 100% methanol for 10 minutes at −20° C., followed by staining with 0.5% crystal violet dye (EMD Millipore, Canada) for 1 h at room temperature. Eight randomly chosen fields of each stained membrane were imaged at 10× objective of a DIC microscope (Olympus IX70) coupled to a digital camera. Cell numbers were obtained by counting the number of crystal violet stained cells in each field using a handheld counter. The average cell numbers for all images per treatment conditions were calculated and used for further statistical analysis. Each experiment was performed at least three independent times.

T1 sequence (P16070 with tags, fused parts or gaps limits assumed): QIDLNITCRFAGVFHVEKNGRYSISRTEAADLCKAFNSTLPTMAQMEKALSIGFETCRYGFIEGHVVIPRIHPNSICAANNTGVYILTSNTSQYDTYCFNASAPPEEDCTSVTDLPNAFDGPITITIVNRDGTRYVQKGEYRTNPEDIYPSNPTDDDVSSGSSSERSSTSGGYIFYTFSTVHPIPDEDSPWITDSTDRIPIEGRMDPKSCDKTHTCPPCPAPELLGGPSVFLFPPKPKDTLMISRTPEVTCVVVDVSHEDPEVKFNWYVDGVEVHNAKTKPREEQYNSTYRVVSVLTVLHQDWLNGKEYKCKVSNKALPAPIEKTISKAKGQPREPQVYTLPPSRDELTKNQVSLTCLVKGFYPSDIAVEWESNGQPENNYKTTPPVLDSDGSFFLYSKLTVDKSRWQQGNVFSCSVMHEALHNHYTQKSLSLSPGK

How did the “TGFβ-induced invasive growth of organoids” value ([1]; 100 pM TGFβ, 8-day, KI 10 μM) turn out when Cc1cc(=O)oc2cc(O)ccc12 [4-MU, 4-methylumbelliferone, reference compound] was run?
Its value is “suppressed TGFβ-induced invasive growth”.

How did the “TGFβ-induced invasive growth of organoids” value ([1]; 100 pM TGFβ, 8-day, KI 10 μM) turn out when NC(=O)c1ccc(-c2nc(-c3ccc4c(c3)OCO4)c(-c3ccccn3)[nH]2)cc1 [KI, SB431542, reference compound] was run?
Its value is “suppressed the TGFβ-induced invasive growth”.

What about the “LMWHA-induced invasive growth of organoids” value ([1]; LMWHA 10-400 μg/mL, 100 μg/mL rhPRG4, KI 10 μM) of the same compound?
The value was “could not reverse the LMWHA effect”.

For Cc1cccc(-c2nn3c(c2-c2ccnc4ccc(C(N)=O)cc24)CCC3)n1 [LY2157299, galunisertib], which “expression of lubricin in comparison to controls” value (lubricin (PRG4) mRNA; LY2157299 alone, 48 hours) is on record?
Its value is “downregulated the expression of lubricin”.

What about the “effect on TGFβ-enhanced expression of lubricin” value (lubricin (PRG4) mRNA; TGFβ plus LY2157299, 48 hours, p<0.01) of the same compound?
Its value is “offset this effect”.

What does the source list for CNC(=O)c1cc(Oc2ccc(NC(=O)Nc3ccc(Cl)c(C(F)(F)F)c3)c(F)c2)ccn1 [Regorafenib]?
capacity in inhibiting cells proliferation in CD44 silenced cells compared to control cells (CD44-shRNA HCC cells): significantly reduced; IC50 [2]: ~5 µM

Which “percentage binding to CD44 of enzyme-digested rhPRG4 compared to untreated control” value (shortened to “percentage binding to CD44”) (CD44-IgG1Fc) does the source give for “O-glycosidase digested rhPRG4: rhPRG4 digested using O-glycosidase for 16 hours at 37° C.” here?
Its value is “significant increase”.

With “Sodium Hyaluronate [LMWHA, reference compound]” as the compound, how does the “invasion of cells, stimulus alone vs untreated control” value (MDA-MB-231 cells) read?
Its value is “increased the proportion of invading cells”.

What about the “invasive growth of organoids, stimulus alone” value ([1]; 100 pM TGFβ, LMWHA 10, 100 or 400 μg/mL, 8-day) of the same compound?
Its value is “increase the proportion of invasive organoids”.

Which “percentage binding to CD44” value (CD44-IgG1Fc) does the source give for “sialidase-A and O-glycosidase-digested rhPRG4: rhPRG4 digested using a combination of sialidase A and O-glycosidase” here?
The value was “significantly higher”.

Which “percentage binding to CD44” value (CD44-IgG1Fc) does the source give for “sialidase-A digested rhPRG4: rhPRG4 digested using sialidase A for 16 hours at 37° C.” here?
The value was “significant increase”.

Which “450 nm absorbance in the CD44-IgG1Fc group vs the IgG1Fc group” value (CD44-IgG1Fc; wells coated at 400 μg/mL, CD44-IgG1Fc or IgG1Fc at 1 μg/mL) does the source give for “vitronectin: vitronectin (Sigma Aldrich), shares sequence homology with lubricin [reference compound]” here?
The value was “no significant difference”.
